Measured values reported in the NIST ThermoML archive (doi:10.1016/j.jct.2015.01.007).

Assay: molar heat capacity at constant pressure
Details: 101.33 kPa, Crystal 1

O=P([O-])([O-])[O-].[Fe+2].[Li+] [iron(II) lithium phosphate]
Details | molar heat capacity at constant pressure [J/K/mol]
66.42 K, relaxation calorimetry | 28.2
67.51 K, relaxation calorimetry | 28.84
68.59 K, relaxation calorimetry | 29.48
69.68 K, relaxation calorimetry | 30.12
70 K, combination of DSC and relaxation calorimetry | 30.31
70.77 K, relaxation calorimetry | 30.78
71.15 K, relaxation calorimetry | 31.26
73.24 K, relaxation calorimetry | 32.53
75.34 K, relaxation calorimetry | 33.86
77.43 K, relaxation calorimetry | 35.17
79.53 K, relaxation calorimetry | 36.46
80 K, combination of DSC and relaxation calorimetry | 36.84
81.62 K, relaxation calorimetry | 37.8
83.72 K, relaxation calorimetry | 39.15
85.81 K, relaxation calorimetry | 40.41
87.9 K, relaxation calorimetry | 41.69
90 K, combination of DSC and relaxation calorimetry | 43.39
90 K, relaxation calorimetry | 42.91
92.09 K, relaxation calorimetry | 44.24
94.19 K, relaxation calorimetry | 45.59
96.28 K, relaxation calorimetry | 46.89
98.38 K, relaxation calorimetry | 48.18
100 K, combination of DSC and relaxation calorimetry | 49.48
100.47 K, relaxation calorimetry | 49.44
102.56 K, relaxation calorimetry | 50.67
104.65 K, relaxation calorimetry | 52.08
106.73 K, relaxation calorimetry | 53.17
108.85 K, relaxation calorimetry | 54.37
110 K, combination of DSC and relaxation calorimetry | 55.21
110.94 K, relaxation calorimetry | 55.54
113.02 K, relaxation calorimetry | 56.62
115.13 K, relaxation calorimetry | 58.05
117.22 K, relaxation calorimetry | 59.3
119.27 K, relaxation calorimetry | 60.39
119.96 K, relaxation calorimetry | 60.87
120 K, combination of DSC and relaxation calorimetry | 60.65
120.69 K, relaxation calorimetry | 61.12
121.4 K, relaxation calorimetry | 61.55
122.12 K, relaxation calorimetry | 61.93
122.83 K, relaxation calorimetry | 62.24
123.54 K, relaxation calorimetry | 62.63
124.25 K, relaxation calorimetry | 63.1
124.96 K, relaxation calorimetry | 63.45
125.68 K, relaxation calorimetry | 63.84
126.36 K, relaxation calorimetry | 64.12
127.07 K, relaxation calorimetry | 64.49
127.81 K, relaxation calorimetry | 64.96
130 K, combination of DSC and relaxation calorimetry | 65.85
131.36 K, relaxation calorimetry | 66.82
140 K, combination of DSC and relaxation calorimetry | 70.83
141.32 K, relaxation calorimetry | 71.82
150 K, combination of DSC and relaxation calorimetry | 75.59
151.46 K, relaxation calorimetry | 76.8
160 K, combination of DSC and relaxation calorimetry | 80.13
161.54 K, relaxation calorimetry | 81.23
170 K, combination of DSC and relaxation calorimetry | 84.45
171.6 K, relaxation calorimetry | 85.36
180 K, combination of DSC and relaxation calorimetry | 88.56
181.68 K, relaxation calorimetry | 89.21
190 K, combination of DSC and relaxation calorimetry | 92.44
191.78 K, relaxation calorimetry | 93.16
200 K, combination of DSC and relaxation calorimetry | 96.11
201.84 K, relaxation calorimetry | 97.49
210 K, combination of DSC and relaxation calorimetry | 99.57
211.78 K, relaxation calorimetry | 100.3
220 K, combination of DSC and relaxation calorimetry | 102.8
222.01 K, relaxation calorimetry | 103.27
230 K, combination of DSC and relaxation calorimetry | 105.9
232.1 K, relaxation calorimetry | 105.66
240 K, combination of DSC and relaxation calorimetry | 108.7
242.04 K, relaxation calorimetry | 108.22
250 K, combination of DSC and relaxation calorimetry | 111.4
252.15 K, relaxation calorimetry | 110.6
260 K, combination of DSC and relaxation calorimetry | 113.9
262.34 K, relaxation calorimetry | 112.67
270 K, combination of DSC and relaxation calorimetry | 116.3
272.43 K, relaxation calorimetry | 114.97
280 K, combination of DSC and relaxation calorimetry | 118.4
282.56 K, relaxation calorimetry | 117.79
284.9 K, Small sample (50 mg) DSC | 120.8
290 K, combination of DSC and relaxation calorimetry | 120.5
292.55 K, relaxation calorimetry | 120.06
293.2 K, Large sample (1 g) DSC | 120.85
294.8 K, Small sample (50 mg) DSC | 122.5
298.15 K, combination of DSC and relaxation calorimetry | 122.1
300 K, combination of DSC and relaxation calorimetry | 122.4
302.7 K, relaxation calorimetry | 120.5
304.6 K, Small sample (50 mg) DSC | 126.1
313.2 K, Large sample (1 g) DSC | 125.4
314.5 K, Small sample (50 mg) DSC | 128.2
320 K, combination of DSC and relaxation calorimetry | 129
324.4 K, Small sample (50 mg) DSC | 129.7
333.2 K, Large sample (1 g) DSC | 128
334.4 K, Small sample (50 mg) DSC | 132.2
340 K, combination of DSC and relaxation calorimetry | 133.4
344.3 K, Small sample (50 mg) DSC | 134.8
353.2 K, Large sample (1 g) DSC | 130.1
354.2 K, Small sample (50 mg) DSC | 136.3
360 K, combination of DSC and relaxation calorimetry | 137.6
364.1 K, Small sample (50 mg) DSC | 137.9
374 K, Small sample (50 mg) DSC | 140.2
380 K, combination of DSC and relaxation calorimetry | 141.6
383.9 K, Small sample (50 mg) DSC | 142.9
393.8 K, Small sample (50 mg) DSC | 145.5
400 K, combination of DSC and relaxation calorimetry | 145.3
403.8 K, Small sample (50 mg) DSC | 147
413.7 K, Small sample (50 mg) DSC | 148.9
420 K, combination of DSC and relaxation calorimetry | 148.7
423.6 K, Small sample (50 mg) DSC | 150.3
433.5 K, Small sample (50 mg) DSC | 151.6
440 K, combination of DSC and relaxation calorimetry | 151.9
443.4 K, Small sample (50 mg) DSC | 152.8
453.3 K, Small sample (50 mg) DSC | 154
460 K, combination of DSC and relaxation calorimetry | 154.9
463.3 K, Small sample (50 mg) DSC | 155
473.2 K, Small sample (50 mg) DSC | 156.3
480 K, combination of DSC and relaxation calorimetry | 157.7
483.1 K, Small sample (50 mg) DSC | 157.5
493 K, Small sample (50 mg) DSC | 159
500 K, combination of DSC and relaxation calorimetry | 160.3
502.9 K, Small sample (50 mg) DSC | 160
512.8 K, Small sample (50 mg) DSC | 161
520 K, combination of DSC and relaxation calorimetry | 162.7
522.7 K, Small sample (50 mg) DSC | 162.2
532.6 K, Small sample (50 mg) DSC | 163.4
540 K, combination of DSC and relaxation calorimetry | 164.9
542.5 K, Small sample (50 mg) DSC | 165
552.4 K, Small sample (50 mg) DSC | 166.2
560 K, combination of DSC and relaxation calorimetry | 167
562.3 K, Small sample (50 mg) DSC | 167.1
572.3 K, Small sample (50 mg) DSC | 168.3
580 K, combination of DSC and relaxation calorimetry | 169
582.2 K, Small sample (50 mg) DSC | 169.6
592.1 K, Small sample (50 mg) DSC | 170.4
600 K, combination of DSC and relaxation calorimetry | 170.9
602 K, Small sample (50 mg) DSC | 171.1
611.9 K, Small sample (50 mg) DSC | 173
620 K, combination of DSC and relaxation calorimetry | 172.8
621.8 K, Small sample (50 mg) DSC | 173.6
631.7 K, Small sample (50 mg) DSC | 174.2
640 K, combination of DSC and relaxation calorimetry | 174.5
641.6 K, Small sample (50 mg) DSC | 174.9
651.6 K, Small sample (50 mg) DSC | 175.7
660 K, combination of DSC and relaxation calorimetry | 176.3
661.5 K, Small sample (50 mg) DSC | 176.8
671.8 K, Small sample (50 mg) DSC | 177.4
680 K, combination of DSC and relaxation calorimetry | 178.1
681.3 K, Small sample (50 mg) DSC | 178
691.3 K, Small sample (50 mg) DSC | 178.7
700 K, combination of DSC and relaxation calorimetry | 179.8
701.2 K, Small sample (50 mg) DSC | 179.4
711.1 K, Small sample (50 mg) DSC | 180.6
720 K, combination of DSC and relaxation calorimetry | 181.6
721 K, Small sample (50 mg) DSC | 181.6
730.9 K, Small sample (50 mg) DSC | 182.4
740 K, combination of DSC and relaxation calorimetry | 183.5
740.8 K, Small sample (50 mg) DSC | 183.5
750.8 K, Small sample (50 mg) DSC | 184.5
760 K, combination of DSC and relaxation calorimetry | 185.5
760.7 K, Small sample (50 mg) DSC | 185.7
770.6 K, Small sample (50 mg) DSC | 186.9
